Patent publication US20110288032A1, “ENZASTAURIN FOR THE TREATMENT OF CANCER” (ELI LILLY AND COMPANY, priority 2008, published 2011)

Tests used:
Assay type in all cases: cell-based, human
HCT116 cells = assay: siRNA sensitization of Enzastaurin drug response, CellTiter Glo cell viability; details: for IC50: Homo sapiens, HCT-116, 72 h, 72 h Enzastaurin
Method: HCT116 cells are obtained from American Tissue Culture Collection, ATCC (Rockville, Md., USA) and cultured in McCoy's 5A medium supplemented with 2 mM L-glutamine and 10% fetal bovine serum (FBS), in a humidified 37° C. incubator with 5% CO2. Plates (384-well) are pre-printed using 2 siRNAs per target in the Druggable Genome v2 Library (Qiagen) such that each well contains 13 nM of an individual siRNA duplex. High throughput reverse transfections are performed by adding transfection agent Lipofectamine 2000 (Invitrogen) and 1500 cells diluted in McCoy's 5A medium supplemented with 2 mM L-glutamine and 2% FBS into each well following a standard reverse transfection protocol. Twenty-four hours post transfection, each assay plate is treated with or without 5 concentrations (0-10 μM) of Enzastaurin in 1% DMSO. Seventy-two hours later, cell viability is measured using chemiluminescence based CellTiter Glo (Promega) assay readout, according to manufacturer's recommendations. UBB siRNA (Qiagen) is the positive cell killing control and All Star Non-silencing (NS-AS) or green fluorescent protein (GFP) is the negative control. Raw signal values are normalized to untreated control wells to compare across plates. These are fit to a 4-parameter logistical model to determine IC50 values. A ‘shift’ in IC50 with respect to the negative control (described above) is calculated as: (IC50 target−IC50 control) divided by IC50 control.

HCT116 (HDAC 2 w.t) = assay: Enzastaurin drug dose response, CellTiter Glo cell viability; details: HCT116 cells
Method: (§1) The human colon cancer cell line, HCT116 (HDAC 2 w.t), and RKO (HDAC 2+/−), a cell line containing a nonsense mutation resulting in null protein expression of HDAC2 relative to HCT116, are obtained from American Tissue Culture Collection, ATCC (Rockville, Md., USA) and cultured in the ATCC recommended growth medium supplemented with 2 mM L-glutamine and 10% FBS, in a humidified 37° C. incubator with 5% CO2. Drug dose response experiments are performed by seeding 1000-2000 cells diluted in McCoy's 5A medium containing 25 mM N-2-hydroxyethylpiperazine-N′-2-ethanesulfonic acid (HEPES), 2 mM L-glutamine and 2% fetal bovine serum (FBS) followed by treatment with or without serial dilutions of Enzastaurin (0-100 μM) in 1% DMSO. Seventy-two or ninety-six hours later, cell viability is measured using chemiluminescence based CellTiter Glo (Promega) assay readout, according to manufacturer's recommendations. Raw signal values are normalized to untreated control and analyzed by non-linear curve fitting in GraphPad Prism (La Jolla, Calif., USA).

RKO (HDAC 2+/−) = assay: as above; details: RKO cells
Method: as §1

IC50 (HCT116 (HDAC 2 w.t); Homo sapiens, HCT-116, 72 or 96 h): 8.34 µM
SMILES: Cn1cc(C2=C(c3cn(C4CCN(Cc5ccccn5)CC4)c4ccccc34)C(=O)NC2=O)c2ccccc21 [Enzastaurin, 3-(1-methyl-1H-indol-3-yl)-4-[1-[1-(pyridin-2-ylmethyl)piperidin-4-yl]-1H-indol-3-yl]-1H-pyrrole-2,5-dione]
shift in IC50 values relative to negative control (HCT116 cells; HCT116, three siRNAs that target HDAC2): > 2 fold
cell killing in high content images (HCT116 cells; HCT116 treated with Enzastaurin and HDAC2 siRNA relative to negative controls and either condition alone, data not shown): higher degree of cell killing
IC50 (HCT116 cells; HCT116, HDAC2 siRNA: None (negative control)): 3.69 µM
IC50 (HCT116 cells; HCT116 transfected with HDAC2 siRNA SEQ ID NO: 1): 1.36 µM
IC50 (HCT116 cells; HCT116 transfected with HDAC2 siRNA SEQ ID NO: 2): 1.68 µM
IC50 (HCT116 cells; HCT116 transfected with HDAC2 siRNA SEQ ID NO: 3): 2.01 µM
maximum killing effect (HCT116 (HDAC 2 w.t)): 50-60%
IC50 (RKO (HDAC 2+/−); Homo sapiens, 72 or 96 h): 3.56 µM
maximum killing effect (RKO (HDAC 2+/−)): 95-100%
